{
  "source": "ChEMBL document CHEMBL1201862",
  "about": "“PubChem BioAssay data set” (2004)",
  "key": {"[1]": {"biological_target": "Luciferin 4-monooxygenase (Photinus pyralis, UniProt P08659)", "sequence (P08659 whole entry)": "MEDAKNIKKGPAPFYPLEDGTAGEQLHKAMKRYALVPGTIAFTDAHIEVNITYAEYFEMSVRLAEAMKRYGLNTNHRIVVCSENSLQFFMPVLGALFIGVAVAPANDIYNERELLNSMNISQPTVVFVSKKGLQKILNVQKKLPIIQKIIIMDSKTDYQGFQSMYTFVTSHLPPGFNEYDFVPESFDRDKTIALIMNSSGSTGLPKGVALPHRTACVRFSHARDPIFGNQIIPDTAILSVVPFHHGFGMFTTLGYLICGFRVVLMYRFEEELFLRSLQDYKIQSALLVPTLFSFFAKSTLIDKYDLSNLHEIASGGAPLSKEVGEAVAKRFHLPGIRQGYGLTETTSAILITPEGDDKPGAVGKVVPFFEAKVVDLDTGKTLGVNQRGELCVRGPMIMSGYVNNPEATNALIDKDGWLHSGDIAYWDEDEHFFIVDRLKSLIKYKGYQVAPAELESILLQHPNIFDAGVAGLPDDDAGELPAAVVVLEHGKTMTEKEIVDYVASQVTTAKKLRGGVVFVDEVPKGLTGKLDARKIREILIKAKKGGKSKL", "assay": "inhibition of purified Photinus pyralis luciferase – biochemical, luminescence, dose response (AID 1891)"}, "[2]": {"assay": "Luminescence Cell-Based Dose Confirmation HTS to Identify Inhibitors of Platelet Dense Granule Release. [Related pubchem assays: 1663 (Primary HTS), 1678 (Summary of Project)]", "format": "functional"}, "[3]": {"biological_target": "Ion channel NompC (Danio rerio, UniProt Q7T1G6)", "sequence (Q7T1G6 whole entry)": "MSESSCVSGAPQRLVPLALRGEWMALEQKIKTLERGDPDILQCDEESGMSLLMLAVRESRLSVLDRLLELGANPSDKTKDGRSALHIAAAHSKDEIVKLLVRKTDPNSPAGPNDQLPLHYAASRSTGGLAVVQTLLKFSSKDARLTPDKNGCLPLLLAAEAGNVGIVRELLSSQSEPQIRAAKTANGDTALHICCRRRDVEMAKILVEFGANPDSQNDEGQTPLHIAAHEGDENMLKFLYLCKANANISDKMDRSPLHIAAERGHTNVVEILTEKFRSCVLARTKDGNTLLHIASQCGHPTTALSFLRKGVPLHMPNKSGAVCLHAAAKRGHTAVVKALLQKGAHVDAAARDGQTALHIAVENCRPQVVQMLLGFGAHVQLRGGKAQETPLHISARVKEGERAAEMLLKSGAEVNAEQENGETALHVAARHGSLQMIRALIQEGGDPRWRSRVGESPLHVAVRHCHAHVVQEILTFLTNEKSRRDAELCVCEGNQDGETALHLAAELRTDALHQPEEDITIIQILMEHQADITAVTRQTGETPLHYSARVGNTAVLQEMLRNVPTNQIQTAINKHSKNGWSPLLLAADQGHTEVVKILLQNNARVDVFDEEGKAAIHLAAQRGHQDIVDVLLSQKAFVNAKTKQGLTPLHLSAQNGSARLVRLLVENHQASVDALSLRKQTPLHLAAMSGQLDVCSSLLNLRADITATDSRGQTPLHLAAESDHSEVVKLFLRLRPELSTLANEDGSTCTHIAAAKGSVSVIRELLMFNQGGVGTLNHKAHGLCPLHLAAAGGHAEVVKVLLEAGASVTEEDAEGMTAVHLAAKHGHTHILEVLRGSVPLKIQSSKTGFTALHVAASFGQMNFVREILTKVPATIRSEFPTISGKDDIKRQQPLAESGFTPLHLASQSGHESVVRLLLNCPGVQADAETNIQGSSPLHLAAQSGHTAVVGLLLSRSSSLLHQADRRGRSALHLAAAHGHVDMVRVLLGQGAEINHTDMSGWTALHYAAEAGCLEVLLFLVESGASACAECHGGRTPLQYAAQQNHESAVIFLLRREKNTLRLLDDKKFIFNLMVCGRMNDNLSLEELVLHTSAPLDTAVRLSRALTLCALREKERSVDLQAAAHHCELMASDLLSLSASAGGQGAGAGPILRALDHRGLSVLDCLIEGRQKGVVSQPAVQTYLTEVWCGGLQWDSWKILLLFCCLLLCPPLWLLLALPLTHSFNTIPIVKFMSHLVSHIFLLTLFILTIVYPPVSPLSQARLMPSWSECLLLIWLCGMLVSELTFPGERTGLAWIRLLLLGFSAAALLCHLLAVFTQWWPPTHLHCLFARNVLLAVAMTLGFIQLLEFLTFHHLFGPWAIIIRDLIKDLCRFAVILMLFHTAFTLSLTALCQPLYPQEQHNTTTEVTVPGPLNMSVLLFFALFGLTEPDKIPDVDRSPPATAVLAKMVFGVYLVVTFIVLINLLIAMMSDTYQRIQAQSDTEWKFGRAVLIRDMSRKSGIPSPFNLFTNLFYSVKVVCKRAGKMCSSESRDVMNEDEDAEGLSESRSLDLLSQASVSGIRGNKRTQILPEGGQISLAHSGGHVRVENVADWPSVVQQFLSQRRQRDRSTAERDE", "assay": "Dose response cell-based high-throughput screening assay for agonists of the transient receptor potential channel N1 (TRPN1). [Related pubchem assays (depositor defined):AID1424, AID1448]", "format": "functional"}, "[4]": {"assay": "Trypanosoma cruzi growth suppression in host cells – NIH3T3 host cells, beta-gal luminescence, confirmation (AID 2044);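 note: intracellular parasites grown in NIH/3T3 mouse fibroblasts as host cells; luminescent beta-galactosidase reporter signal from transgenic T. cruzi replicating inside host cells; inhibitors lower the luminescence signal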", "format": "functional, cell-based"}, "[5]": {"biological_target": "Mucolipin-3 (Homo sapiens, UniProt Q8TDD5)", "sequence (Q8TDD5 whole entry)": "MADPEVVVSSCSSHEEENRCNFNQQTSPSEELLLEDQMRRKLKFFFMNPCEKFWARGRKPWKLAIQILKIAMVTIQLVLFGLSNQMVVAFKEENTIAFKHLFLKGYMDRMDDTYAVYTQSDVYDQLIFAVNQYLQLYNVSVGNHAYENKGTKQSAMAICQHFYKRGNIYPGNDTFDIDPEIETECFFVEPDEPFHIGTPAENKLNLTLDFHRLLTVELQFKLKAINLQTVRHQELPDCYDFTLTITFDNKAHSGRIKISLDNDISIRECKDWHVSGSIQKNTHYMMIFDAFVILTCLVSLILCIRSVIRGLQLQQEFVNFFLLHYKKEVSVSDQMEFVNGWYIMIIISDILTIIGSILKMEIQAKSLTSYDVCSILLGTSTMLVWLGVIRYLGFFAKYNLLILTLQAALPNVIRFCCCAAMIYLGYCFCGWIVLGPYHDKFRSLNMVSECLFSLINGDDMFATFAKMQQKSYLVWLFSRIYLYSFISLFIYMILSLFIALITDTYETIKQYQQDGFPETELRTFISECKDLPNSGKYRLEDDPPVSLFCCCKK", "assay": "Fluorescence counterscreen assay for […] agonists: dose response cell-based high-throughput screening assay to identify agonists of the transient receptor potential channel ML3 (TRPML3). [Related pubchem assays: 1424, 1448 ]", "format": "functional"}, "[6]": {"assay": "NIH3T3 cell viability loss – ATP luminescence, mouse fibroblasts, counter-screen, dose response (AID 2010);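 note: cells exposed to compound for about 90 hours before reading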", "format": "functional, cell-based"}, "[7]": {"biological_target": "T1, Short transient receptor potential channel 4 (Mus musculus, UniProt Q9QUQ5)", "T1 sequence (Q9QUQ5 whole entry)": "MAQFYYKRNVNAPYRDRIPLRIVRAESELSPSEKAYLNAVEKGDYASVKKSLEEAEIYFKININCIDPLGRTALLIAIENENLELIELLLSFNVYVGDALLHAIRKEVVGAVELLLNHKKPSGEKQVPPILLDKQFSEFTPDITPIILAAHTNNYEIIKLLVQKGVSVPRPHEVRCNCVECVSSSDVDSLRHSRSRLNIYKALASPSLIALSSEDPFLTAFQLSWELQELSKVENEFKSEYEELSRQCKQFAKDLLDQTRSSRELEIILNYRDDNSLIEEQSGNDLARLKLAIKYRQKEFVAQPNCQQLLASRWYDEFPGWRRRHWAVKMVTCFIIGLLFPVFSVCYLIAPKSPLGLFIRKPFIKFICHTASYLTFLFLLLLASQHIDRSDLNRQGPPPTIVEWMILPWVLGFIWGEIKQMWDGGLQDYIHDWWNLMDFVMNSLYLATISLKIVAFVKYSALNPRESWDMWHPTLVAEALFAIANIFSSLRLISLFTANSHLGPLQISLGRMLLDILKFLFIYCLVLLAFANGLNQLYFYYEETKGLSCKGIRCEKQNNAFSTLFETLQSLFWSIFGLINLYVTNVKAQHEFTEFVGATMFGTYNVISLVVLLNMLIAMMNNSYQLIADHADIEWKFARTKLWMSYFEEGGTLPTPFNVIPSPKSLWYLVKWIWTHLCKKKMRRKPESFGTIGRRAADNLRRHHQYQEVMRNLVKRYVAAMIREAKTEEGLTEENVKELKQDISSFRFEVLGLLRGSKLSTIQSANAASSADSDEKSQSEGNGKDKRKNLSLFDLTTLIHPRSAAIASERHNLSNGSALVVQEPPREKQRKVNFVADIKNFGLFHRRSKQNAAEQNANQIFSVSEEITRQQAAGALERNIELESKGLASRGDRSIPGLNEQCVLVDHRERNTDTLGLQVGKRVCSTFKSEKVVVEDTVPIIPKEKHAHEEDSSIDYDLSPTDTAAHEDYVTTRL", "assay": "calcium entry via TRPC4 opening agents – cell-based, HEK293 TRPC4/mu-opioid, Fluo-4 calcium, dose response (AID 434937)", "format": "functional"}, "[8]": {"test_system": "Vero", "assay": "cells", "format": "functional, cell-based", "conditions": "Chlorocebus sabaeus"}, "[9]": {"test_system": "Vero", "assay": "cells", "format": "functional", "conditions": "Chlorocebus sabaeus"}, "[10]": {"biological_target": "Tyrosine-protein phosphatase non-receptor type 12 (Homo sapiens, UniProt Q05209)", "sequence (Q05209 whole entry)": "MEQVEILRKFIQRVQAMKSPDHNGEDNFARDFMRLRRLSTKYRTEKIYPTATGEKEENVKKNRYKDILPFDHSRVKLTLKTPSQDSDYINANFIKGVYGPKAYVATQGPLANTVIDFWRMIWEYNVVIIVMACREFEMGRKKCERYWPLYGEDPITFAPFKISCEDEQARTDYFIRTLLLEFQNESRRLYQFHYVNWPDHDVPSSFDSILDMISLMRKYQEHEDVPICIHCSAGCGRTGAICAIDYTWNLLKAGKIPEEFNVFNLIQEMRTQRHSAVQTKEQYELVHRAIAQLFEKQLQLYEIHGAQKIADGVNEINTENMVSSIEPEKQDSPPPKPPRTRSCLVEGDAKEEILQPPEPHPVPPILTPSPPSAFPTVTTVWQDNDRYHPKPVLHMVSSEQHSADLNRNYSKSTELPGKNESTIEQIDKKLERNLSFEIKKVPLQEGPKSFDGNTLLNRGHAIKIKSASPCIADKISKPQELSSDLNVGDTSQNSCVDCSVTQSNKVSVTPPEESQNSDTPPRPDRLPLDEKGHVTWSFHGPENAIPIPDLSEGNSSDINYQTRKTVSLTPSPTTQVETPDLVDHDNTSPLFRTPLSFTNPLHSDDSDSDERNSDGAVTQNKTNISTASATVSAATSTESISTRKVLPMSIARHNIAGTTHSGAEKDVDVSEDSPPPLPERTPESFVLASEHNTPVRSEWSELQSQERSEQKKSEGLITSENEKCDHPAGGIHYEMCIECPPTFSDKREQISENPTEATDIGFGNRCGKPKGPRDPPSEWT", "assay": "SAR Selectivity Analysis of small molecule inhibitors of PEST using pCAP in a fluorescence assay. [Related pubchem assays (depositor defined):AID1779, AID1784, AID2135]", "format": "functional"}, "[11]": {"biological_target": "T2, Tyrosine-protein phosphatase non-receptor type 22 (Homo sapiens, UniProt Q9Y2R2)", "T2 sequence (Q9Y2R2 whole entry)": "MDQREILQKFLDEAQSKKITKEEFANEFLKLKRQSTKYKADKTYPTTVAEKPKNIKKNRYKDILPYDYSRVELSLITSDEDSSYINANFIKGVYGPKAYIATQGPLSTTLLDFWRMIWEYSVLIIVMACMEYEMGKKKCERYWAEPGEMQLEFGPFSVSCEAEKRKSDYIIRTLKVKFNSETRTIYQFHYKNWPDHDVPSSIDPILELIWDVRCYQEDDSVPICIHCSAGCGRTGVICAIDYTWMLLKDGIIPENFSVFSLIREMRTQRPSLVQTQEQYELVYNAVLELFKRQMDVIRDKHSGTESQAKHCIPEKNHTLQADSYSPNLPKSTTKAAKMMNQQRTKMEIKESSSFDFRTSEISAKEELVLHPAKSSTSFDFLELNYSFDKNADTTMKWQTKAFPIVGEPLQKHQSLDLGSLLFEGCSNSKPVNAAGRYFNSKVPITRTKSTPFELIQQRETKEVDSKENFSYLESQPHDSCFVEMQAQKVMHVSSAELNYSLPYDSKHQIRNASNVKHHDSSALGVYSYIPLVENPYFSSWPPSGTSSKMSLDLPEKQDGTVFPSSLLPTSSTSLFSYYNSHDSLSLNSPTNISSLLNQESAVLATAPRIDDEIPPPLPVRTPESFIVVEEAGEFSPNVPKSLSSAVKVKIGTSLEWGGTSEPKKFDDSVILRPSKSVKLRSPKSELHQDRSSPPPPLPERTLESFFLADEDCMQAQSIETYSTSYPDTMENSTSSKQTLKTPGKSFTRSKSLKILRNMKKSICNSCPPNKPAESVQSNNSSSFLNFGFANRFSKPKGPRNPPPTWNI", "assay": "SAR LYP1 Fluorescent Assay using OMFP substrate for In Vitro dose response studies - Set 3. [Related pubchem assays (depositor defined):AID1779, AID1784, AID2140, AID2686]", "format": "functional"}, "[12]": {"biological_target": "T3, Tyrosine-protein phosphatase non-receptor type 7 (Homo sapiens, UniProt P35236)", "T3 sequence (P35236 whole entry)": "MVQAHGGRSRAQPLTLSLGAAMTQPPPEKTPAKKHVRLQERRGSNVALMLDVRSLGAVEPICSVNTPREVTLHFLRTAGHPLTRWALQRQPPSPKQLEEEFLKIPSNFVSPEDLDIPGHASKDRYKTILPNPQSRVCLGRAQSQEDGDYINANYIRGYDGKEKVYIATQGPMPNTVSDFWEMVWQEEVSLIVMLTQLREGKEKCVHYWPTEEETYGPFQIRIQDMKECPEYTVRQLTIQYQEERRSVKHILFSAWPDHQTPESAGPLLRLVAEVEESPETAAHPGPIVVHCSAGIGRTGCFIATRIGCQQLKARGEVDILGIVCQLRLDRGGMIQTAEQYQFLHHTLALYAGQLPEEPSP", "assay": "redox-active compounds inhibiting HePTP phosphatase – biochemical, fluorescence, mechanism study (AID 2068)", "format": "functional"}, "[13]": {"biological_target": "T3, Tyrosine-protein phosphatase non-receptor type 7", "assay": "inhibition of hematopoietic tyrosine phosphatase HePTP – biochemical, set 2, SAR follow-up (AID 449736)", "format": "functional"}, "[14]": {"biological_target": "T2, Tyrosine-protein phosphatase non-receptor type 22", "assay": "inhibition of lymphoid tyrosine phosphatase LYP – biochemical, pCAP fluorogenic substrate, fluorescence, set 3, SAR follow-up (AID 449727)", "format": "functional"}, "[15]": {"biological_target": "Dual specificity protein phosphatase 3 (Homo sapiens, UniProt P51452)", "sequence (P51452 whole entry)": "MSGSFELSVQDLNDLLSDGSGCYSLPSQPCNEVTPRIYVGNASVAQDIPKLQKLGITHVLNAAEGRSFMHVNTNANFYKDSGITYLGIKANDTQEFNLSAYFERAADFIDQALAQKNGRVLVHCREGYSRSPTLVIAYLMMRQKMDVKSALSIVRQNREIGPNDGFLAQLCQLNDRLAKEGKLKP", "assay": "SAR VHR1 Fluorescent Assay for In Vitro dose response studies Set 2. [Related pubchem assays (depositor defined):AID1654, AID1661, AID1878]", "format": "functional"}, "[16]": {"biological_target": "T4, Dual specificity protein phosphatase 6 (Rattus norvegicus, UniProt Q64346)", "T4 sequence (Q64346 whole entry)": "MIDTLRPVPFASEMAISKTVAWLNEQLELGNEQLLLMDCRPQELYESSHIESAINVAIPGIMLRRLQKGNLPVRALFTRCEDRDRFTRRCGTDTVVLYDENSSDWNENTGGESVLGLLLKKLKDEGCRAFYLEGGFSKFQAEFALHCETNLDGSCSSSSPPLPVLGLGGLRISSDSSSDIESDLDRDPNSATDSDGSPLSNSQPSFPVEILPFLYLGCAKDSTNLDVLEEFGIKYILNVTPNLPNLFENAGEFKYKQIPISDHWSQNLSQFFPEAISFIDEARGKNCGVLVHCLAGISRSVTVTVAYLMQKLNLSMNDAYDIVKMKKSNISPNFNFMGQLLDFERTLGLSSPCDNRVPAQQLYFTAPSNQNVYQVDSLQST", "format": "functional"}},
  "note": "Activity calls are given as the source filed them.",
  "data": [
    {"compound": "CC(C)(C)c1ccc(C(=O)NC(=S)NNC(=O)c2cccs2)cc1", "values": [
      {"measurement": "EC50", "setting": "[1]", "value": "> 112 µM (not active)"},
      {"measurement": "EC50", "setting": "[2]", "value": "24.5 µM (active)"},
      {"measurement": "EC50", "setting": "[3]", "value": "0.168 µM (active)"},
      {"measurement": "EC50", "setting": "[4]", "value": "2.15 µM (active)"},
      {"measurement": "EC50", "setting": "[5]", "value": "0.292 µM (active)"},
      {"measurement": "EC50", "setting": "[6]", "value": "13.5 µM (active)"},
      {"measurement": "EC50", "setting": "[7]", "value": "1.5 µM (active)"},
      {"measurement": "IC50", "setting": "[8]", "value": "> 12.5 µM (active)"},
      {"measurement": "CC50", "setting": "[9]", "value": "17.4 µM (active)"}
    ]},
    {"compound": "CCOc1cc(/C=C2\\SC(=O)N(CC(=O)Nc3ccc(C)cc3)C2=O)cc(Cl)c1OCC(=O)OC", "values": [
      {"measurement": "IC50", "setting": "[10]", "value": "> 100 µM (inactive)"},
      {"measurement": "IC50", "setting": "[11]", "value": "> 100 µM (inactive)"},
      {"measurement": "IC50", "setting": "[12]", "value": "17.9 µM (active)"},
      {"measurement": "IC50", "setting": "[13]", "value": "9.66 µM (active)"},
      {"measurement": "IC50", "setting": "[14]", "value": "> 100 µM (inactive)"},
      {"measurement": "IC50", "setting": "[15]", "value": "> 100 µM (inactive)"},
      {"measurement": "IC50", "setting": "[16]", "value": "> 100 µM (inactive)"}
    ]}
  ]
}
